Experimental findings from US7517874B2 (priority 2007, dated 2009) are described below.

pEC50: −log10 of the molar value. Like-named read-outs stand apart in the source and are kept apart here.

The target in assay [1] is human CB1 receptor (hCB1) (Homo sapiens, UniProt P21554). The assay can be described thus: cell-based. It is filed as cell-based. To be noted: for +/− HCB1: agonist or inverse agonist at hCB1; for EC50: groups >100 nM-10 μM and >10 μM, cAMP, CHO-K1 hCB1, read-out: EC50 HCB1. The protocol: (§1) The ability of compounds to act as agonists or inverse agonists at human CB2 and CB1 receptors (hCB2, hCB1, respectively) and at the rat CB2 receptor (rCB2) was determined by measuring changes in intracellular cAMP levels. Chinese Hamster Ovary (CHO-K1) cell lines stably expressing hCB2 (Genebank: X74328) or hCB1 (Genebank: X54937) were purchased from Euroscreen (Gosselies, Belgium). The rat CB2 receptor was expressed from genomic DNA (provided by M. Abood, California Pacific Medical Center) in CHO-K1 cells from expression plasmid vector, pcDNA3.1.
(§2) Cell lines were grown in suspension in EX-CELL 302 CHO Serum-free medium (Sigma, cat #14324C) supplemented with 1% Fetal Bovine Serum, glutamine and non-essential amino-acids under 0.4 mg/mL G418 selection.
(§3) Receptor mediated responses were determined by measuring changes in intracellular cAMP using LANCE cAMP detection kit (cat #AD0264, Perkin Elmer, Wellesley, Mass.) based on time-resolved fluorescence resonance energy transfer (TR-FRET). Changes in cAMP were determined in cells pre-incubated with IBMX (isobutyl methylxanthine) and prestimulated with NKH-477 (a water soluble forskolin derivative, cat #1603, Tocris, Ellisville, Mo.) to increase basal cAMP levels as detailed below.
(§4) On the day of the experiment, cells were spun at low speed for 5 min at room temperature. The supernatant was removed and cells were resuspended in stimulation buffer (Hanks Buffered Salt Solution/5 mM HEPES, containing 0.5 mM IBMX (cat #17018, Sigma) and 0.02% BSA (Perkin-Elmer, cat #CR84-100)). Cell clumps were removed by filtering through cell strainer 40 μm (BD Falcon, Discovery Labware, Bedford, Mass.) and diluted to 2×10^5 cells/mL. Antibody supplied with the LANCE cAMP immunoassay kit was then added according to the manufacturer's instructions. An aliquot of cells was taken for un-induced controls. To the remaining cells was added NKH-477 (a water soluble forskolin derivative, Tocris cat #1603) to a final concentration of 2-8 μM. Cells were then incubated for 30 min at room temperature prior to adding to Proxiplates containing test compounds (final DMSO concentration was less than 0.5%) with a Multidrop bulk dispenser, followed by a sixty minute incubation at room temperature. The response was stopped by addition of the detection mix supplied with the LANCE kit. The reagents were allowed to equilibrate for three hours prior to reading on an Envision multi-mode detector (Perkin-Elmer). TR-FRET was measured using a 330-380 nm excitation filter, a 665 nm emission filter, dichroic mirror 380 nm and Z=1 mm. Cyclic AMP concentrations in each well were back-calculated from a cAMP standard curve run concurrently during each assay. Each plate contained 16 wells of forskolin stimulated cells and 16 wells of forskolin plus CP55,940-treated cells. Cells were treated with 1 μM CP55,940 (Tocris cat. #0949). Concentrations of cAMP were expressed as a percent of the difference of these two groups of wells. Concentration-response data including EC50 (the concentration of compound producing 50% of the maximal response) and intrinsic activity (the percent maximal activation compared to full activation by CP55,940) were determined using a four-parameter non-linear regression algorithm (Xlfit equation 251, IDBS).

The target of assay [2] is T1, rat CB2 receptor (rCB2) (Rattus norvegicus, UniProt Q9QZN9).
T1 sequence (Q9QZN9 1-360): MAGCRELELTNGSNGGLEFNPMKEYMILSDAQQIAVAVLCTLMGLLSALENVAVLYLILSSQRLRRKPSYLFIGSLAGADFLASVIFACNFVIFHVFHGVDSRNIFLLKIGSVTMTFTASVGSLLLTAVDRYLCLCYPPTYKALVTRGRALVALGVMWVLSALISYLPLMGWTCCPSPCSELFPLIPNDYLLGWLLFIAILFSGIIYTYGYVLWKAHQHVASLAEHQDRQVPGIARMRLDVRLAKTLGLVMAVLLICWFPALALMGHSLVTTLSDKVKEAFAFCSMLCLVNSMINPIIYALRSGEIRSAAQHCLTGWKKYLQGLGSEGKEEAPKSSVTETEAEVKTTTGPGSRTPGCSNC
The assay can be described thus: cell-based. It is filed as cell-based. To be noted: for +/− RCB2: agonist or inverse agonist at rCB2. On the procedure: as §1, §2, §3, §4

Chain of human CB1 receptor (hCB1) (P21554 whole entry): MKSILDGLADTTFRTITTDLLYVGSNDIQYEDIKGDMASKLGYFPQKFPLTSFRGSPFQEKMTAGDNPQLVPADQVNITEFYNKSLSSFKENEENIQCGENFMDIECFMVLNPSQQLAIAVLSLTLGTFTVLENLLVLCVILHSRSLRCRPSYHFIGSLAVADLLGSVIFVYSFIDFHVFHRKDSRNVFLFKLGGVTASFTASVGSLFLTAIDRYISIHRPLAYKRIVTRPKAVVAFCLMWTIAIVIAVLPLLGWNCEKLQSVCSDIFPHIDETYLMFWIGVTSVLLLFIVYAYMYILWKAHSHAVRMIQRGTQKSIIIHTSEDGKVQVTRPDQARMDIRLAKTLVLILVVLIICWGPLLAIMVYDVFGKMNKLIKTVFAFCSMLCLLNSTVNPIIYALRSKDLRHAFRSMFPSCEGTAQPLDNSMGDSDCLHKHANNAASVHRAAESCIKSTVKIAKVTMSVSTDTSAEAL

With `CNC(=O)[C@@H](NC(=O)c1nc(-c2ccc(Cl)cc2F)n2c1CN(c1ncccn1)CCC2)C(C)(C)C` [Compound 482, 3-(4-chloro-2-fluorophenyl)-N-(3,3-dimethyl-1-(methylamino)-1-oxobutan-2-yl)-8-(pyrimidin-2-yl)-6,7,8,9-tetrahydro-5H-imidazo[1,5-a][1,4]diazepine-1-carboxamide], the “+/− HCB1” value in assay [1] is “+”. Further, the “+/− RCB2” value in assay [2] was “+”.

In assay [1], `CNC(=O)[C@@H](NC(=O)c1nc(CCCN2CCCCC2)n2c1CN(C)CCC2)C(C)(C)C` [Compound 501, (S)-N-(3,3-dimethyl-1-(methylamino)-1-oxobutan-2-yl)-8-methyl-3-(3-(piperidin-1-yl)propyl)-6,7,8,9-tetrahydro-5H-imidazo[1,5-a][1,4]diazepine-1-carboxamide] showed a pEC50 of less than 5.00. In addition, the “+/− RCB2” value in assay [2] is listed as “+”.

For the compound `CN1CCCn2c(-c3cc(Cl)c(F)cc3F)nc(C(=O)N[C@H](C(N)=O)C(C)(C)C)c2C1` [Compound 580, (S)-N-(1-amino-3,3-dimethyl-1-oxobutan-2-yl)-3-(5-chloro-2,4-difluorophenyl)-8-methyl-6,7,8,9-tetrahydro-5H-imidazo[1,5-a][1,4]diazepine-1-carboxamide], in assay [1], the “+/− HCB1” value is “+”. Also, the “+/− RCB2” value in assay [2] is on record as “+”.

In turn, `CNC(=O)[C@@H](NC(=O)c1nc(-c2ccccc2)n2c1CN(C)CCC2)C(C)(C)O` [Compound 607, (S)-N-(3-hydroxy-3-methyl-1-(methylamino)-1-oxobutan-2-yl)-8-methyl-3-phenyl-6,7,8,9-tetrahydro-5H-imidazo[1,5-a][1,4]diazepine-1-carboxamide] showed a pEC50 in assay [1] of less than 5.00. Besides, the “+/− RCB2” value in assay [2] was “+”.

`CNC(=O)[C@@H](NC(=O)c1nc(/C=C/CN2CCCC2)n2c1CN(C)CCC2)C(C)(C)C` [Compound 511, (S,E)-N-(3,3-dimethyl-1-(methylamino)-1-oxobutan-2-yl)-8-methyl-3-(3-(pyrrolidin-1-yl)prop-1-enyl)-6,7,8,9-tetrahydro-5H-imidazo[1,5-a][1,4]diazepine-1-carboxamide]: the pEC50 in assay [1] is less than 5.00. In addition, the “+/− RCB2” value in assay [2] is listed as “+”.

Compound `CN1CCn2c(-c3ccccc3)nc(C(=O)NCC3OCCO3)c2C1` [Compound 234, N-((1,3-dioxolan-2-yl)methyl)-7-methyl-3-phenyl-5,6,7,8-tetrahydroimidazo[1,5-a]pyrazine-1-carboxamide] had a pEC50 in assay [1] of less than 5.00. In addition, in assay [2], the “+/− RCB2” value is given as “+”.

Regarding `CN1CCCn2c(-c3ccc(F)c(F)c3)nc(C(=O)N[C@@H](CC(C)(C)C)C(N)=O)c2C1` [Compound 586, (S)-N-(1-amino-4,4-dimethyl-1-oxopentan-2-yl)-3-(3,4-difluorophenyl)-8-methyl-6,7,8,9-tetrahydro-5H-imidazo[1,5-a][1,4]diazepine-1-carboxamide], the “+/− HCB1” value in assay [1] is listed as “+”. Besides, the “+/− RCB2” value in assay [2] was “+”.

Take `CNC(=O)c1ccc(-c2nc(C(=O)N[C@H](C(=O)NC)C(C)(C)C)c3n2CCCN(C)C3)cc1` [Compound 408]: the negative logarithm of the EC50 (pEC50) in assay [1] and in assay [2] was less than 5.00 in each case.

In assay [1], `CNC(=O)[C@H](CC(C)C)NC(=O)c1nc(-c2ccc(F)c(F)c2)n2c1CN(C)CC2` [Compound 278, (S)-3-(3,4-difluorophenyl)-7-methyl-N-(4-methyl-1-(methylamino)-1-oxopentan-2-yl)-5,6,7,8-tetrahydroimidazo[1,5-a]pyrazine-1-carboxamide] gave a pEC50 of less than 5.00. For the same compound, in assay [2], the “+/− RCB2” value is recorded as “+”.

`CNC(=O)[C@@H](NC(=O)c1nc(-c2ccccc2)n2c1CN(C(=O)C(C)(C)C)CC2)C(C)(C)C` [Compound 190, (S)-N-(3,3-dimethyl-1-(methylamino)-1-oxobutan-2-yl)-3-phenyl-7-pivaloyl-5,6,7,8-tetrahydroimidazo[1,5-a]pyrazine-1-carboxamide] had a pEC50 in assay [1] of less than 5.00. In addition, in assay [2], the “+/− RCB2” value was “−”.

With `Cc1noc([C@@H](NC(=O)c2nc(-c3ccccc3)n3c2CN(C(=O)OC(C)(C)C)CCC3)C(C)(C)C)n1` [Compound 517, (S)-tert-butyl 1-(2,2-dimethyl-1-(3-methyl-1,2,4-oxadiazol-5-yl)propylcarbamoyl)-3-phenyl-6,7-dihydro-5H-imidazo[1,5-a][1,4]diazepine-8(9H)-carboxylate], in assay [1], the EC50 is more than 10000 nM. The “+/− RCB2” value in assay [2] is on record as “−”.

As to `CNC(=O)[C@@H](NC(=O)c1nc(-c2ccccc2)n2c1CN(S(=O)(=O)c1ccccc1F)CC2)C(C)(C)C` [Compound 98, (S)-N-(3,3-dimethyl-1-(methylamino)-1-oxobutan-2-yl)-7-(2-fluorophenylsulfonyl)-3-phenyl-5,6,7,8-tetrahydroimidazo[1,5-a]pyrazine-1-carboxamide], the pEC50 in assay [1] was less than 5.00. In assay [2], the “+/− RCB2” value is given as “−”.

Consider `Cc1ccc(-c2nc(C(=O)N[C@H](c3nc(C)no3)C(C)(C)C)c3n2CCCN(C(=O)OC(C)(C)C)C3)c(F)c1` [Compound 518, (S)-tert-butyl 1-(2,2-dimethyl-1-(3-methyl-1,2,4-oxadiazol-5-yl)propylcarbamoyl)-3-(2-fluoro-4-methylphenyl)-6,7-dihydro-5H-imidazo[1,5-a][1,4]diazepine-8(9H)-carboxylate], for which the pEC50 in assay [1] was less than 5.00. In addition, the “+/− RCB2” value in assay [2] is reported as “−”.

Consider `CNC(=O)[C@@H](NC(=O)c1nc(/C=C/CN2CCOCC2)n2c1CN(C)CCC2)C(C)(C)C` [Compound 509, (S,E)-N-(3,3-dimethyl-1-(methylamino)-1-oxobutan-2-yl)-8-methyl-3-(3-morpholinoprop-1-enyl)-6,7,8,9-tetrahydro-5H-imidazo[1,5-a][1,4]diazepine-1-carboxamide], for which the pEC50 in assay [1] and in assay [2] was less than 5.00 throughout.

As to `CNC(=O)c1cccc(-c2nc(C(=O)N[C@H](C(=O)NC)C(C)(C)C)c3n2CCCN(C)C3)c1` [Compound 391, (S)-N-(3,3-dimethyl-1-(methylamino)-1-oxobutan-2-yl)-8-methyl-3-(3-(methylcarbamoyl)phenyl)-6,7,8,9-tetrahydro-5H-imidazo[1,5-a][1,4]diazepine-1-carboxamide], the negative logarithm of the EC50 (pEC50) in assay [1] and in assay [2] was less than 5.00 in each case.

Take `CNC(=O)[C@@H](NC(=O)c1nc(-c2c(C)noc2C)n2c1CN(C)CCC2)C(C)(C)C` [Compound 442, N-((S)-3,3-dimethyl-1-(methylamino)-1-oxobutan-2-yl)-3-(3,5-dimethylisoxazol-4-yl)-8-methyl-6,7,8,9-tetrahydro-5H-imidazo[1,5-a][1,4]diazepine-1-carboxamide]: the “+/− HCB1” value in assay [1] was “+”. Moreover, in assay [2], the “+/− RCB2” value is recorded as “+”.

On to `COC(=O)[C@@H](NC(=O)c1nc(-c2ccccc2)n2c1CN(C(C)C)CCC2)C(C)(C)C` [Compound 468, (S)-methyl 2-(8-isopropyl-3-phenyl-6,7,8,9-tetrahydro-5H-imidazo[1,5-a][1,4]diazepine-1-carboxamido)-3,3-dimethylbutanoate], for which, in assay [1], the pEC50 is less than 5.00. Also, the “+/− RCB2” value in assay [2] is on record as “−”.

As to `O=C(Nc1ccccc1)c1nc(-c2ccccc2)n2c1CN(C(=O)C1CC1)CC2` [Compound 129, 7-(cyclopropanecarbonyl)-N,3-diphenyl-5,6,7,8-tetrahydroimidazo[1,5-a]pyrazine-1-carboxamide], the concentration giving a half-maximal response (EC50) in assay [1] is more than 10000 nM. For the same compound, the “+/− RCB2” value in assay [2] is “−”.

Broadly, the pEC50 is −log10 of the EC50, conventionally taken in molar units. As a reminder, the EC50 is the midpoint of the concentration-response curve.
